Reference: the NIST ThermoML archive (doi:10.1016/j.jct.2006.03.014)
± gives the expanded uncertainty stated by the source.

Assay: xn = mol fraction of the nth substance listed
Conditions: 101 kPa, Liquid; for viscosity: Capillary tube (Ostwald / Ubbelohde) method; for mass density: Pycnometric method

CC1OC(C)OC(C)O1 (centres undefined) [2,4,6-trimethyl-1,3,5-trioxane] + CCOC(C)=O
Conditions | mass density, 298.15 K [kg/m3] | mass density, 303.15 K [kg/m3] | mass density, 308.15 K [kg/m3] | viscosity, 298.15 K [mPa·s] | viscosity, 303.15 K [mPa·s] | viscosity, 308.15 K [mPa·s]
x1 = 0.0203 | 896.3 ± 1.2 | 890 ± 1.2 | 883.7 ± 1.2 | 0.435 ± 0.008 | 0.405 ± 0.008 | 0.392 ± 0.008
x1 = 0.04 | 898.7 ± 1.2 | 892.4 ± 1.2 | 886 ± 1.2 | 0.439 ± 0.008 | 0.411 ± 0.008 | 0.395 ± 0.008
x1 = 0.0601 | 901.1 ± 1.2 | 894.8 ± 1.2 | 888.5 ± 1.3 | 0.446 ± 0.008 | 0.419 ± 0.008 | 0.4 ± 0.008
x1 = 0.0799 | 903.5 ± 1.2 | 897.2 ± 1.3 | 890.8 ± 1.3 | 0.451 ± 0.008 | 0.421 ± 0.008 | 0.407 ± 0.008
x1 = 0.1002 | 905.8 ± 1.2 | 899.6 ± 1.3 | 893.2 ± 1.3 | 0.457 ± 0.008 | 0.428 ± 0.008 | 0.412 ± 0.008
x1 = 0.1957 | 916.6 ± 1.2 | 910.4 ± 1.3 | 904 ± 1.3 | 0.491 ± 0.009 | 0.455 ± 0.008 | 0.439 ± 0.008
x1 = 0.3 | 927.8 ± 1.2 | 921.6 ± 1.3 | 915.2 ± 1.3 | 0.53 ± 0.009 | 0.492 ± 0.008 | 0.468 ± 0.008
x1 = 0.4 | 937.9 ± 1.3 | 931.8 ± 1.3 | 925.4 ± 1.3 | 0.567 ± 0.009 | 0.53 ± 0.009 | 0.503 ± 0.009
x1 = 0.5001 | 947.4 ± 1.3 | 941.3 ± 1.3 | 935 ± 1.3 | 0.61 ± 0.009 | 0.574 ± 0.009 | 0.539 ± 0.009
x1 = 0.6001 | 956.4 ± 1.3 | 950.4 ± 1.3 | 944.1 ± 1.3 | 0.663 ± 0.01 | 0.628 ± 0.01 | 0.586 ± 0.009
x1 = 0.7 | 965 ± 1.3 | 959 ± 1.3 | 952.7 ± 1.3 | 0.739 ± 0.011 | 0.691 ± 0.01 | 0.639 ± 0.01
x1 = 0.8001 | 973.1 ± 1.3 | 967.3 ± 1.3 | 960.9 ± 1.4 | 0.832 ± 0.012 | 0.766 ± 0.011 | 0.708 ± 0.01
x1 = 0.9 | 980.9 ± 1.3 | 975.1 ± 1.3 | 968.8 ± 1.4 | 0.947 ± 0.013 | 0.861 ± 0.012 | 0.789 ± 0.011
x1 = 1 | 988.4 ± 1.3 | 982.6 ± 1.3 | 976.4 ± 1.4 | 1.107 ± 0.015 | 1.001 ± 0.014 | 0.907 ± 0.013
